Results as given in patent US20110207697A1, “XANTHOHUMOL COMPOSITIONS AND METHODS FOR TREATING SKIN DISEASES OR DISORDERS” (Betal, LLC, priority 2008, published 2011).
Values after ≈ are worked out from the molar mass of the structure shown. Where two headings read alike, the source gives them in different places.

What was measured:
[1] = Water solubility of xanthohumol (HPLC of supernatant); format: physicochemical; conditions: thermodynamic from solid, 1 mg xanthohumol per ml water, sonicated 5 minutes
Experimental: Pure xanthohumol (XN), Xanohop A, xanthohumol-gamma cyclodextrin (XN/gCD), and xanthohumol-beta cyclodextrin (XN/bCD) were dispersed in water at a ratio of 1 mg xanthohumol per ml of water. After being sonicated for 5 minutes, the resultant suspensions were centrifuged at 3,000 rpm for 2 minutes or 12,000 rpm for 3 minutes. The supernatants thus formed were collected, diluted (1:10) with methanol, and then injected into HPLC to determine xanthohumol concentrations.

[2] = biological target: T1, neutrophil collagenase (MMP-8) (Homo sapiens, UniProt P22894); assay: Anticollagenase assay; format: biochemical; conditions: mean of three measurements
T1 construct: from tissue; host or cells: human neutrophils
T1 sequence (P22894 101-467): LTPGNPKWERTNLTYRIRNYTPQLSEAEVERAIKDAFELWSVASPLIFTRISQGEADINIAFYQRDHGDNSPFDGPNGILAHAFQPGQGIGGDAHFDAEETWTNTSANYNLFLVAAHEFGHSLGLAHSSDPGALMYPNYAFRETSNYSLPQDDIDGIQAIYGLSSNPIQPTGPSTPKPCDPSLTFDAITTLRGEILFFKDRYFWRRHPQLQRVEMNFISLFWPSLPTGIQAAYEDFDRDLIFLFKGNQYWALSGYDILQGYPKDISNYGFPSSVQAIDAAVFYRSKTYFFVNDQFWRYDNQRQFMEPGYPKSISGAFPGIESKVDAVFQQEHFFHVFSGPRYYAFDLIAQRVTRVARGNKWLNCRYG
Experimental: (§1) Human recombinant matrix metalloproteinase-MMP-1) pro-enzyme, expressed in mammalian cells, and human nutrophil MMP-8 pro-enzyme were activated with 4-aminophenylmercuric acetate for 60 min 37 1 C, respectively (Knight et al. 1992 FEBS Lett. 296: 263-266). Hop components and vehicle were preincubated with 5 nM MMP- and 6 nM MMP-8 active enzymes in a modified MOPS buffer, pH 7.2, for 60 minutes at 37 C. The reaction was initiated by addition of […] Mca-Pro-Leu-Gly-Leu-Dpa-Ala-Arg for another 120-minute incubation period. The determination of the amount of Mca-Pro-Leu-Gly formed was read spectrofluorimetrically at 340/400 nm. Tissue inhibitors of metalloproteinase TIMP-1 and TIMP-2 were used as positive controls (Olson et 1997 J. Biol. Chem. 272: 29975-29983).

[3] = biological target: T2, interstitial collagenase (MMP-1) (Homo sapiens, UniProt P03956); assay: Anticollagenase assay; format: biochemical; conditions: mean of three measurements
T2 construct: host or cells: mammalian cells
T2 sequence (P03956 100-469): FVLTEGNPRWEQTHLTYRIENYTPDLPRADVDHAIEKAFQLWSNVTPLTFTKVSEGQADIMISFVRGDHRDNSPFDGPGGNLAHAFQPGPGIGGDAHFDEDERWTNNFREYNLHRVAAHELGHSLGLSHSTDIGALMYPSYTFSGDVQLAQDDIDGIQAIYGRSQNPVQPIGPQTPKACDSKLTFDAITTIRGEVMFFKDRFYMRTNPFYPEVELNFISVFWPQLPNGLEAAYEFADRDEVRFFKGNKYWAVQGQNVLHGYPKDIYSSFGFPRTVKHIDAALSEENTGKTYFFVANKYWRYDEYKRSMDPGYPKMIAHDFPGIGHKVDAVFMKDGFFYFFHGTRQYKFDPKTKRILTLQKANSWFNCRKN
Experimental: as §1

[4] = ORAC-Total (ORAClipo + ORAChydro)
Source text: An ORAC method for lipophilic antioxidants was further developed and validated using fluorescein as the fluorescent probe (Prior et al. 2003 J. Agric. Food Chem. 51: 3273-3279). This method has the advantage that similar assay conditions and standards can be used for both hydrophilic and lipophilic antioxidant components, such that the two values can be added together to obtain a total antioxidant capacity. In the present work, the ORAC value is expressed as the sum of values of both the water-soluble and fat-soluble parts. Green tea catechins (Polyphenon 60) were used as the control with the highest ORAC value among edible plants. Vitamin C and vitamin E were used as controls for water- and fat-soluble molecules, respectively. […] The SOAC scores are not included in this figure; ORAC values used are the sum of lipophilic and hydrophilic results. For each assay category, scaling was made logarithmic so that the plot on the chart resembles the associated rating. […] The larger the spatial area, the higher the overall antioxidative capacity. […] Both hydrophilic and lipophilic oxygen radical absorbance capacity (ORAC) assays were carried out at Brunswick Laboratory (Wareham, Mass.) based on the modified ORACfl method reported by Ou et al. (2001 J. Agric. Food Chem. 49: 4619-4626, 2002 J. Agr. Food Chem. 50: 3122-3128). Trolox, a water-soluble vitamin E analog, was used as the calibration standard. The data are expressed as mmole of Trolox equivalents per gram (mmol TE/g). The acceptable precision of the ORAC assay is a 15% relative standard deviation. Caffeic acid was used as the calibration standard. Hydroxyl radical ORAC (HOR-AC) is expressed as mmole caffeic acid equivalent per gram (mmol CAE/g). Trolox was used as the calibration standard. The peroxyl nitrite ORAC (NORAC) result is expressed as mmol TE/g. Alpha-tocopherol (vitamin E) was used as the calibration standard, and the singlet oxygen absorbance capacity (SOAC) result is expressed as mmole a-tocopherol equivalent (mmol VtE) per gram (Aubry et al. 1989). The abbreviation for the 1,1-diphenyl-2-picrylhydrazyl radical is DPPH. Radical-scavenging activity was measured by the change in absorbance at 517 nm with the DPPH result expressed as mmol TE/g. Similarly, FRAP is an abbreviation for the ferric reducing antioxidative power method, which utilizes chemical conversion of the yellow Fe 3+-2,4,6-tripyridyl s-triazine (TPTZ) complex to the blue Fe 2+-TPTZ complex by electron donation under acidic conditions (Okada and Okada 1998 J. Agric. Food Chem. 46: 401-406). The FRAP result is expressed as mmol TE/g (Ou et al. 2002b). Superoxide dismutase (SOD) was used as a calibration standard; the SOD result is expressed as kilo unit SOD equivalent (kunitSODeq) per gram.

[5] = system: K. rhizophila (formerly M. luteus) (ATCC 9341); assay: Antimicrobial susceptibility, broth dilution (MIC/MBC); format: cell-based, Kocuria rhizophila
Experimental: The antibacterial effects of seven hops components against five different strains of bacteria involved in primary or secondary skin and soft tissue infections was evaluated, with broth dilution methods. […] Antimicrobial susceptibility testing was performed using a broth dilution method. Gentamicin or ampicillin was used as a control to verify the methodology. A stock solution (20 mg/ml) of the test substance (or vehicle control) was prepared in dimethyl sulfoxide. Serial dilution was done in microwell plates. Reinforced Clostridial Medium was used for P. acnes (ATCC 6919). Three hundreds […] of the test substance was added to the test tube containing P. acnes (10^5 CFU/ml) in 2.7 ml of cultures grown under anaerobic conditions. Mueller-Hinston Broth suitable for culturing S. epidermidis (ATCC 12228), K. rhizophila (formerly M. luteus) (ATCC 9341), and S. aureus (ATCC […]), and Brain Heart Infusion Broth suitable for culturing S. pyogenes (ATCC 14289) were used. A total of […] of the test substance was added to the test tube containing the other microorganisms (10^5CFU/ml) in 0.9 ml of cultures grown under controlled conditions. […] Samples from those tubes that scored positive was plated onto an agar plate and incubated under controlled conditions.

## COc1cc(O)c(CC=C(C)C)c(O)c1C(=O)/C=C/c1ccc(O)cc1 [Xanthohumol (7), 3′-[3,3-dimethylallyl]-2′,4′,4-trihydroxy-6′-methoxychalcone]
[1]; centrifuged 3,000 rpm 2 minutes, read-out: Water-solubility of XN (3,000 rpm)
  solubility at 5 min: 4 µg/mL (≈ 11.3 µM)
[1]; centrifuged 12,000 rpm 3 minutes, read-out: Water-solubility of XN (12,000 rpm)
  solubility at 5 min: 2 µg/mL (≈ 5.64 µM)
[2]; 10 μg/mL
  Inhibitory ratio (%) MMP-8: 31%
[2]; 30 μg/mL
  Inhibitory ratio (%) MMP-8: 70%
[2]; 100 μg/mL
  Inhibitory ratio (%) MMP-8: 99%
[3]; 10 μg/mL
  Inhibitory ratio (%) MMP-1: 25%
[3]; 30 μg/mL
  Inhibitory ratio (%) MMP-1: 65%
[3]; 100 μg/mL
  Inhibitory ratio (%) MMP-1: 91%
[4]; FIG. 2 radar chart
  quenching activity against peroxyl radical (ORAC-total), rank among hop components: highest quenching activity
[4]; ORAClipo + ORAChydro
  ORAC-Total (Trolox equivalent): 4.2 Trolox equivalent
[5]
  MBC: [10] g/mL
[5]; 1 day
  MIC: 1 µg/mL (≈ 2.82 µM)
[5]; Kocuria rhizophila, ATCC9341
  MIC: 1000 µg/mL (≈ 2820 µM)
